Reference: paper PMC5399005, “Degradation of lignin β‐aryl ether units in Arabidopsis thaliana expressing LigD, LigF and LigG from Sphingomonas paucimobilis SYK‐6” (Plant Biotechnology Journal, 2016)

Assays:
Type in all cases: biochemical
[1] = molecular target: T1, LigD (Sphingobium sp. SYK-6, UniProt Q01198); assay: LC-MS product detection with leaf extract of transgenic Arabidopsis; conditions: 0.5 mM GGE, 1 mM NAD+, 1 mM GSH, 100 mM phosphate pH 7.5, room temperature, 16 h; product MPHPV
T1 sequence (Q01198 1-305): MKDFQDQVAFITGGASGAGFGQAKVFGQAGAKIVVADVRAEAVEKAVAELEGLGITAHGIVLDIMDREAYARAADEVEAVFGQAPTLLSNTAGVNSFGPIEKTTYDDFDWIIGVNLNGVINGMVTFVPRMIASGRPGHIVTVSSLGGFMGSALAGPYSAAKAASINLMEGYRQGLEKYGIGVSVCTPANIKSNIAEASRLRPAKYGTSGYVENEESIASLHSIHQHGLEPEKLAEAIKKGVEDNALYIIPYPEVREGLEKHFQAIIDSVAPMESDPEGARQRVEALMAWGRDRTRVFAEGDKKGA

[2] = molecular target: T2, LigG (Sphingomonas paucimobilis, UniProt Q9WXJ9); assay: as above; conditions: GS-HPV from LigF reaction mixture, GSH, 100 mM phosphate pH 7.5
T2 construct: codon-optimised, barley alpha-amylase signal peptide added, expressed in Arabidopsis (crude leaf extract)
T2 sequence (Q9WXJ9 1-265): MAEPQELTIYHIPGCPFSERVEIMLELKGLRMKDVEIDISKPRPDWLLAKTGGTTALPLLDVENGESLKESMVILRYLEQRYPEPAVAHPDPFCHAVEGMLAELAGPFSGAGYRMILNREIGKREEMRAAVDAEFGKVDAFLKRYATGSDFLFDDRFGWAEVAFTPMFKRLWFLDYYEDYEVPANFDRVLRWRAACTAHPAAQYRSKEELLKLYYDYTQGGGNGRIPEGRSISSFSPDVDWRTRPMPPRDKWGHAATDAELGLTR

[3] = molecular target: T3, LigF (Sphingobium sp. SYK-6, UniProt P30347); assay: LC-MS product detection with leaf extract of transgenic Arabidopsis (also E. coli extract); conditions: 0.5 mM MPHPV, 1 mM GSH, 1 mM NAD+, 100 mM phosphate pH 7.5, room temperature, 16 h; product GS-HPV
T3 construct: also pETSTREP in E. coli BL21(DE3)
T3 sequence (P30347 1-257): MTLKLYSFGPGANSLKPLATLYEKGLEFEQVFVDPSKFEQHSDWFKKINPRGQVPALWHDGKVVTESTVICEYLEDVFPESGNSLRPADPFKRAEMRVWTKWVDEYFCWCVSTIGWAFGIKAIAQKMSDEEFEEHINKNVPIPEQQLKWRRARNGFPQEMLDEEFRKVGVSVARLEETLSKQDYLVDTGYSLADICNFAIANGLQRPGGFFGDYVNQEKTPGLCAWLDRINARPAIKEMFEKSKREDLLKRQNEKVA

## COc1cc(C(O)C(CO)Oc2ccccc2OC)ccc1O (stereo not drawn) [GGE]
[1]
  LC-MS product detection with leaf extract of transgenic Arabidopsis: GGE, MPHPV and GS‐HPV were used as a substrate to monitor the catalytic function

## COc1cc(C(=O)C(CO)SC[C@H](NC(=O)CC[C@H](N)C(=O)O)C(=O)NCC(=O)O)ccc1O (stereo partly drawn) [GS-HPV]
[2]
  LC-MS product detection with leaf extract of transgenic Arabidopsis: The reaction mixture obtained contained mainly GS‐HPV and was used to test for LigG activity

## COc1cc(C(=O)C(CO)Oc2ccccc2OC)ccc1O (stereo not drawn) [S4, MPHPV]
[3]
  LC-MS product detection with leaf extract of transgenic Arabidopsis (also E. col): produced enzymatically by incubation of MPHPV with protein extracts of Escherichia coli expressing LigF
